Measured values published in patent US8288421B2, “Phenylaminopyridines” (Basilea Pharmaceutica AG, priority 2004, dated 2012).

Tests used:
HeLa [1] = test: Hoechst 33342 nuclear staining; type: cell-based, human; conditions: 48 h read-out
Procedure: (§1) This assay is performed in 96 well tissue culture plates. Appropriate number of cells (adherent cells: 3-5*10^3, suspension cells: 8-10*10^3) are being seeded out in 80 μl complete medium. Adherent cells are incubated for 24 h for proper spreading out before addition of test compounds while suspension cells are immediately treated with test compounds after seeding out. The test compounds are added in 20 μl complete medium containing max 5% DMSO. The final compound concentrations in the assays are in the range of 0.001 μM-10 μM. […] The assay plates are then further incubated for 30 minutes and subsequently analyzed with a standard inverted fluorescence microscope.
(§2) The readout allows the determination of the fraction of apoptotic nuclei as well as other morphological criteria specific for apoptosis as a function of the treatment. The scores A, B, C and D are explained at the end of the Table.

Jurkat [2] = test: Hoechst 33342 nuclear staining; type: cell-based, human; conditions: 48 h read-out
Procedure: as §1, §2

PBL [3] = test: Hoechst 33342 nuclear staining; type: cell-based, human; conditions: 48 h read-out
Procedure: as §1, §2

Jily [4] = test: Hoechst 33342 nuclear staining; type: cell-based; conditions: 48 h read-out
Procedure: as §1, §2

MRC5 [5] = test: Hoechst 33342 nuclear staining; type: cell-based; conditions: MRC5, 48 h read-out
Procedure: as §1, §2

HT1080 = test: MTS proliferation assay; type: cell-based, human; conditions: HT1080, 72 h read-out
Procedure: (§3) The assay is performed in 96 well tissue culture plates. The cells (range: 1.5*10^3-10^4) are seeded out in 80 μl complete medium 24 h prior to compound treatment. The test compounds are added in 20 μl complete medium containing max 5% DMSO. The final compound concentrations in the assays are in the range of 0.001 μM-10 μM. The assay plates are incubated for 72 h at culture conditions. The MTS reagent is prepared according to the manufacturer's protocol (Promega G1111). 20 μl MTS reagent are added to each well, the assay plates are quickly spun and incubated for another 3 h at culture conditions. Subsequently, the plates are shortly shaked and absorption measured with a microplate-reader at 492 nm. The scores A, B, C and D are explained at the end of the Table.

HeLa [6] = test: MTS proliferation assay; type: cell-based, human; conditions: 72 h read-out
Procedure: as §3

Jurkat [7] = test: MTS proliferation assay; type: cell-based, human; conditions: 72 h read-out
Procedure: as §3

Jily [8] = test: MTS proliferation assay; type: cell-based; conditions: 72 h read-out
Procedure: as §3

MRC5 [9] = test: MTS proliferation assay; type: cell-based; conditions: MRC5, 72 h read-out
Procedure: as §3

HeLa [10] = test: Mitochondrial membrane potential (JC-1); type: cell-based, human; conditions: 48 h read-out
Procedure: as §1, with “20 μal” for “20 μl”, “DMSO.” for “DMSO. The final compound concentrations in the assays are in the range of 0.001 μM-10 μM.”, “fluorescence microscope by using the FITC and TRITC filters.” for “fluorescence microscope.”
(§4) The scores A, B, C and D are explained at the end of the Table.

Jurkat [11] = test: Mitochondrial membrane potential (JC-1); type: cell-based, human; conditions: 48 h read-out
Procedure: as §1, with “20 μal” for “20 μl”, “DMSO.” for “DMSO. The final compound concentrations in the assays are in the range of 0.001 μM-10 μM.”, “fluorescence microscope by using the FITC and TRITC filters.” for “fluorescence microscope.”
as §4

MCF7 = test: Mitochondrial membrane potential (JC-1); type: cell-based, human; conditions: MCF7, 48 h read-out
Procedure: as §1, with “20 μal” for “20 μl”, “DMSO.” for “DMSO. The final compound concentrations in the assays are in the range of 0.001 μM-10 μM.”, “fluorescence microscope by using the FITC and TRITC filters.” for “fluorescence microscope.”
as §4

PBL [12] = test: Mitochondrial membrane potential (JC-1); type: cell-based, human; conditions: 48 h read-out
Procedure: as §1, with “20 μal” for “20 μl”, “DMSO.” for “DMSO. The final compound concentrations in the assays are in the range of 0.001 μM-10 μM.”, “fluorescence microscope by using the FITC and TRITC filters.” for “fluorescence microscope.”
as §4

DOHH2 = test: Mitochondrial membrane potential (JC-1); type: cell-based; conditions: DOHH2, 48 h read-out
Procedure: as §1, with “20 μal” for “20 μl”, “DMSO.” for “DMSO. The final compound concentrations in the assays are in the range of 0.001 μM-10 μM.”, “fluorescence microscope by using the FITC and TRITC filters.” for “fluorescence microscope.”
as §4

Row | SMILES | EC50 (HeLa [1]) [nM] | EC50 (Jurkat [2]) [nM] | EC50 (PBL [3]) [nM] | EC50 (Jily [4]) [nM] | EC50 (MRC5 [5]) [nM] | IC50 (HT1080) [nM] | IC50 (HeLa [6]) [nM] | IC50 (Jurkat [7]) [nM] | IC50 (Jily [8]) [nM] | IC50 (MRC5 [9]) [nM] | EC50 (HeLa [10]) [nM] | EC50 (Jurkat [11]) [nM] | EC50 (MCF7) [nM] | EC50 (PBL [12]) [nM] | EC50 (DOHH2) [nM]
1 | COc1ccc(Nc2cncc(-c3cccc(NC(C)=O)c3)c2)cc1 [Example 8] | 100 to 1000 | 100 to 1000 | > 1000 | 100 to 1000 | 100 to 1000 | 100 to 1000 | 100 to 1000 | 100 to 1000 | 100 to 1000 | > 1000 | 100 to 1000 | 100 to 1000 | > 1000 | > 1000 | 100 to 1000
2 | COc1ccc(Nc2cncc(-c3cccc(NC(=O)c4ccc(OC)cc4)c3)c2)cc1 [Example 9] |  |  |  |  |  | 100 to 1000 | 100 to 1000 | 100 to 1000 | 100 to 1000 | > 1000 | 100 to 1000 | 10 to 100 | 100 to 1000 | > 1000 | 10 to 100
3 | CCOc1ccccc1C(=O)Nc1cccc(-c2cncc(Nc3ccc(OC)cc3)c2)c1 [Example 10] | 10 to 100 | 10 to 100 | > 1000 | 100 to 1000 | > 1000 | 10 to 100 | 100 to 1000 | 10 to 100 | 10 to 100 | 100 to 1000 | 100 to 1000 | 10 to 100 | 100 to 1000 | > 1000 | 100 to 1000
4 | COc1ccc(Nc2cncc(-c3cccc(NC(=O)c4cnccn4)c3)c2)cc1 [Example 12] | 10 to 100 | 10 to 100 | > 1000 | 10 to 100 | 100 to 1000 | 10 to 100 | 10 to 100 | < 10 | 10 to 100 | 100 to 1000 | 100 to 1000 | 10 to 100 | 100 to 1000 | > 1000 | 10 to 100
5 | COc1ccc(Nc2cncc(-c3cccc(NC(=O)c4cccnc4)c3)c2)cc1 [Example 13] | 100 to 1000 | 100 to 1000 | > 1000 | 100 to 1000 | > 1000 | 100 to 1000 | 100 to 1000 | 10 to 100 | 10 to 100 | 100 to 1000 | 100 to 1000 | 10 to 100 | > 1000 | > 1000 | 100 to 1000
6 | COc1ccc(Nc2cncc(-c3cccc(NC(=O)c4ccco4)c3)c2)cc1 [Example 14] | 100 to 1000 | 10 to 100 | > 1000 | 10 to 100 | 100 to 1000 | 100 to 1000 | 100 to 1000 | 10 to 100 | 10 to 100 | 100 to 1000 | 100 to 1000 | 10 to 100 | > 1000 | > 1000 | 10 to 100
7 | COc1ccc(Nc2cncc(-c3cccc(NC(=O)Cc4ccccc4)c3)c2)cc1 [Example 15] | 100 to 1000 | 100 to 1000 | > 1000 | 100 to 1000 | > 1000 | 100 to 1000 | 100 to 1000 | 100 to 1000 | 100 to 1000 | 100 to 1000 | 100 to 1000 | 10 to 100 | > 1000 | > 1000 | 100 to 1000
8 | COc1ccc(Nc2cncc(-c3cccc(NC(=O)c4ccccn4)c3)c2)cc1 [Example 17] | 10 to 100 | 100 to 1000 | > 1000 | 10 to 100 | > 1000 | 10 to 100 | 10 to 100 | < 10 | 10 to 100 | 10 to 100 | 10 to 100 | 10 to 100 | > 1000 | > 1000 | 10 to 100
9 | CCC(=O)Nc1cccc(-c2cncc(Nc3ccc(OC)cc3)c2)c1 [Example 21] | 100 to 1000 | 100 to 1000 | > 1000 | 100 to 1000 | > 1000 | 100 to 1000 | 100 to 1000 | 10 to 100 | 100 to 1000 | 100 to 1000 | 100 to 1000 | 100 to 1000 | > 1000 | > 1000 | 100 to 1000
10 | COc1ccc(Nc2cncc(-c3cccc(NC(=O)c4cccs4)c3)c2)cc1 [Example 22] | 10 to 100 | 10 to 100 | > 1000 | 10 to 100 | 100 to 1000 | 10 to 100 | 10 to 100 | 10 to 100 | 10 to 100 | 100 to 1000 | 10 to 100 | 10 to 100 | 100 to 1000 | > 1000 | 10 to 100
11 | COc1ccc(Nc2cncc(-c3cccc(NS(=O)(=O)c4ccccc4)c3)c2)cc1 [Example 23] | 100 to 1000 | 100 to 1000 | > 1000 | 100 to 1000 | > 1000 | 100 to 1000 | 100 to 1000 | 100 to 1000 | 100 to 1000 | 100 to 1000 | 100 to 1000 | 100 to 1000 | 100 to 1000 | > 1000 | 100 to 1000
12 | COCC(=O)Nc1cccc(-c2cncc(Nc3ccc(OC)cc3)c2)c1 [Example 41] | 100 to 1000 | 100 to 1000 | 100 to 1000 | 100 to 1000 | > 1000 |  |  |  |  |  | 100 to 1000 | 100 to 1000 | 100 to 1000 | 100 to 1000 | 100 to 1000
